According to article PMC10175918 (Communications Biology, 2023):
Like-named read-outs stand apart in the source and are kept apart here.

Legend:
Experiment in all cases: TGFα-shedding assay-based GPCR screening with chimeric Gα subunit proteins
Assay type in all cases: cell-based
[1] = molecular target: T1, 348 GPCRs (Homo sapiens, UniProt Q8WXD0); settings: RXFP2 (relaxin/insulin-like family peptide receptor 2); 10µM, Favipiravir 100μM
T1 construct: expressed in transfected cells; host or cells: HEK293A
T1 sequence (Q8WXD0 whole entry): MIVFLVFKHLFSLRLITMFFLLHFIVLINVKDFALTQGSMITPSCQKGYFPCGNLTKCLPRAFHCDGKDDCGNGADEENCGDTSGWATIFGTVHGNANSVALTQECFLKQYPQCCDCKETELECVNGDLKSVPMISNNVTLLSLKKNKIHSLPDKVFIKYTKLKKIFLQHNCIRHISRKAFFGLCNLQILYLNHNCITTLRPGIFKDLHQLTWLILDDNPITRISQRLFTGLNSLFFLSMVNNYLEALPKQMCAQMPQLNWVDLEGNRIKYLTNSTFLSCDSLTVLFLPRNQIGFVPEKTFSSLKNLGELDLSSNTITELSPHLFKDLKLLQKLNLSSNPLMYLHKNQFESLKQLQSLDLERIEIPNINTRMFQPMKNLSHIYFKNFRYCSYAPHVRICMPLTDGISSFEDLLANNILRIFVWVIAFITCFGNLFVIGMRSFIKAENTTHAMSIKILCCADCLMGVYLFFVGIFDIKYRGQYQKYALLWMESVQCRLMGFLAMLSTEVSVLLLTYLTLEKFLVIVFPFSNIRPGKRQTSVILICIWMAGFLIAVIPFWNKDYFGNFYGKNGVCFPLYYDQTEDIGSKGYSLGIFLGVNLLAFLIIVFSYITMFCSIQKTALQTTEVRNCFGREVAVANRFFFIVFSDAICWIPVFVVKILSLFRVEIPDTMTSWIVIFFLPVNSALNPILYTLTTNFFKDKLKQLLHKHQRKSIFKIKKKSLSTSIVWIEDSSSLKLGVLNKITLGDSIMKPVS

[2] = molecular target: T2, 348 GPCRs (Homo sapiens, UniProt Q92847); settings: 10µM, Favipiravir 100μM
T2 construct: expressed in transfected cells; host or cells: HEK293A
T2 sequence (Q92847 whole entry): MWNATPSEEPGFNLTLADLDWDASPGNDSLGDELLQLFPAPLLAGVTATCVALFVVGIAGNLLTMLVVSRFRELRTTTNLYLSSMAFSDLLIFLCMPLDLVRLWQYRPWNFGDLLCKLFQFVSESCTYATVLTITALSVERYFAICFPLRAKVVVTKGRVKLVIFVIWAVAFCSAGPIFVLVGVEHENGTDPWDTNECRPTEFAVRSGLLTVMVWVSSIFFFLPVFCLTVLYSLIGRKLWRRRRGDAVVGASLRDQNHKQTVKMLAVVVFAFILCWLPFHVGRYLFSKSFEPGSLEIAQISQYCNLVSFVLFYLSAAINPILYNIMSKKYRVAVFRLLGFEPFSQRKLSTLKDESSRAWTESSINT

[3] = molecular target: T3, 348 GPCRs (Homo sapiens, UniProt Q15760); settings: 10µM, Favipiravir 100μM
T3 construct: expressed in transfected cells; host or cells: HEK293A
T3 sequence (Q15760 whole entry): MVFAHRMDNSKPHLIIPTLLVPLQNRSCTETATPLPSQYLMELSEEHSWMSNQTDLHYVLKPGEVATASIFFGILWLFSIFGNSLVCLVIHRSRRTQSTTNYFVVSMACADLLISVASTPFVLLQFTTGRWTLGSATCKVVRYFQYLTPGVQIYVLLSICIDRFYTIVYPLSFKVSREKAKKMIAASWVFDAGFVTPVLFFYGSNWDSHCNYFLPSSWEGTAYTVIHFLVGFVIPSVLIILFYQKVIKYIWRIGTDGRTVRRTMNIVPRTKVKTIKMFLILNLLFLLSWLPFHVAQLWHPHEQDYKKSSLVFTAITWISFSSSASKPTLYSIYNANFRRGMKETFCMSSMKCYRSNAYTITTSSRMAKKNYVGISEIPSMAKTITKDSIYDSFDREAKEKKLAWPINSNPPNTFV

[4] = molecular target: T4, 348 GPCRs (Homo sapiens, UniProt P48546); settings: 10µM, Favipiravir 100μM
T4 sequence (P48546 22-466): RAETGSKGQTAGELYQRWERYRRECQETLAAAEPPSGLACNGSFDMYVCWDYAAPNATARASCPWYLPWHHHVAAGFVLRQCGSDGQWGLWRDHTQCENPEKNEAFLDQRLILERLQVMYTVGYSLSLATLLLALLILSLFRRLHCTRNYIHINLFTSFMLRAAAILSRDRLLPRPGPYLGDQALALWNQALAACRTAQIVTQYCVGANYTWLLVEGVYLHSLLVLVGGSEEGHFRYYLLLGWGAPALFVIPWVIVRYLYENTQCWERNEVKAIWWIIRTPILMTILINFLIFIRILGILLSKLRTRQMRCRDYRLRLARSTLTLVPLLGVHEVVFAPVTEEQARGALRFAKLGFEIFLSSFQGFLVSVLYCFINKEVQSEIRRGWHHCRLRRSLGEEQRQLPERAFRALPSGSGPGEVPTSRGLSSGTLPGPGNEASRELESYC

[5] = molecular target: T5, 348 GPCRs (Homo sapiens, UniProt Q8TDU6); settings: 10µM, Favipiravir 100μM
T5 construct: expressed in transfected cells; host or cells: HEK293A
T5 sequence (Q8TDU6 1-330): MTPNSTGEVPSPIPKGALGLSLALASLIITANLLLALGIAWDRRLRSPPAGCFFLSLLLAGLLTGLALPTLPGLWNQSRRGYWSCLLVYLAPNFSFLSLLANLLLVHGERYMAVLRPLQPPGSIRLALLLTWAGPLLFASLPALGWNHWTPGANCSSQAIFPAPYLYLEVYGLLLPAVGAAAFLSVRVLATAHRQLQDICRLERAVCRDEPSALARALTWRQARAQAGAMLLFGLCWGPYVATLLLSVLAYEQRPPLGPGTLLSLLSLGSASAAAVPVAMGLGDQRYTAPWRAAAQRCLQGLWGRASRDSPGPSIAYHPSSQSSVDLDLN

[6] = molecular target: T6, 348 GPCRs (Homo sapiens, UniProt P49685); settings: 10µM, Favipiravir 100μM
T6 sequence (P49685 1-360): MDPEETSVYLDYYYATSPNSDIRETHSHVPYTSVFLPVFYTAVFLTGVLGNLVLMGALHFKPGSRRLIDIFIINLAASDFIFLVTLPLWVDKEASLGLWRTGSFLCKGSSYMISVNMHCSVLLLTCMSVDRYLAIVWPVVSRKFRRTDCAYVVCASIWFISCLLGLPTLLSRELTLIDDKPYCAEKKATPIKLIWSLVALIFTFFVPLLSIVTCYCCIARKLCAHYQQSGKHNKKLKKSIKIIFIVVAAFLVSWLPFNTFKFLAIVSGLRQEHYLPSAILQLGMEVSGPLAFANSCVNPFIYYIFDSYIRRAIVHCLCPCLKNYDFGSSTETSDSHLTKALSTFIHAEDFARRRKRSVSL

[7] = molecular target: T7, 348 GPCRs (Homo sapiens, UniProt P46089); settings: 10µM, Favipiravir 100μM
T7 construct: expressed in transfected cells; host or cells: HEK293A
T7 sequence (P46089 whole entry): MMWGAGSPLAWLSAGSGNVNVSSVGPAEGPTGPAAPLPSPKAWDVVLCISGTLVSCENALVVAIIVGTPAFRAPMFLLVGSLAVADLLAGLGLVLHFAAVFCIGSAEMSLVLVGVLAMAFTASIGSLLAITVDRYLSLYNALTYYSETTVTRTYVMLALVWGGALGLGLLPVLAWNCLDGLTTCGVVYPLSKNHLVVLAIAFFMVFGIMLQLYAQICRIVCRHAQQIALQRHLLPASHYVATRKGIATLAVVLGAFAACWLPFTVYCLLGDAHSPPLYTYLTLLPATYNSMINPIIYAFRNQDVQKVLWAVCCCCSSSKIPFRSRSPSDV

[8] = molecular target: 348 GPCRs (Homo sapiens, UniProt P21554); settings: read-out: % GPCR activation compared to TPA, CB1 (cannabinoid receptor 1); 10µM, Favipiravir 100μM
Chain of 348 GPCRs (Homo sapiens, UniProt P21554) (P21554 whole entry): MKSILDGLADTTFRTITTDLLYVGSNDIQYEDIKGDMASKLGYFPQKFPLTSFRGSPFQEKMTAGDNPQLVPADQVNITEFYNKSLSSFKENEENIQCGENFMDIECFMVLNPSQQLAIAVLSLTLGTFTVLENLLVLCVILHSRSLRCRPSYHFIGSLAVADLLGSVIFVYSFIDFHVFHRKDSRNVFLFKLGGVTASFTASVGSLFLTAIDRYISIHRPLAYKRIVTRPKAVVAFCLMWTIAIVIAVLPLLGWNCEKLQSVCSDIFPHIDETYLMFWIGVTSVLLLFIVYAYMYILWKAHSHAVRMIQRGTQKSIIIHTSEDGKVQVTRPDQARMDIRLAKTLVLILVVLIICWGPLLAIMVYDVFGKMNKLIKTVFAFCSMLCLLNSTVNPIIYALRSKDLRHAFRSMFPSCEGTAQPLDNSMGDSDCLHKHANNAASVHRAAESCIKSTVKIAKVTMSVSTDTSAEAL

[9] = molecular target: T8, 348 GPCRs (Homo sapiens, UniProt Q5T6X5); settings: 10µM, Favipiravir 100μM
T8 construct: expressed in transfected cells; host or cells: HEK293A
T8 sequence (Q5T6X5 19-926): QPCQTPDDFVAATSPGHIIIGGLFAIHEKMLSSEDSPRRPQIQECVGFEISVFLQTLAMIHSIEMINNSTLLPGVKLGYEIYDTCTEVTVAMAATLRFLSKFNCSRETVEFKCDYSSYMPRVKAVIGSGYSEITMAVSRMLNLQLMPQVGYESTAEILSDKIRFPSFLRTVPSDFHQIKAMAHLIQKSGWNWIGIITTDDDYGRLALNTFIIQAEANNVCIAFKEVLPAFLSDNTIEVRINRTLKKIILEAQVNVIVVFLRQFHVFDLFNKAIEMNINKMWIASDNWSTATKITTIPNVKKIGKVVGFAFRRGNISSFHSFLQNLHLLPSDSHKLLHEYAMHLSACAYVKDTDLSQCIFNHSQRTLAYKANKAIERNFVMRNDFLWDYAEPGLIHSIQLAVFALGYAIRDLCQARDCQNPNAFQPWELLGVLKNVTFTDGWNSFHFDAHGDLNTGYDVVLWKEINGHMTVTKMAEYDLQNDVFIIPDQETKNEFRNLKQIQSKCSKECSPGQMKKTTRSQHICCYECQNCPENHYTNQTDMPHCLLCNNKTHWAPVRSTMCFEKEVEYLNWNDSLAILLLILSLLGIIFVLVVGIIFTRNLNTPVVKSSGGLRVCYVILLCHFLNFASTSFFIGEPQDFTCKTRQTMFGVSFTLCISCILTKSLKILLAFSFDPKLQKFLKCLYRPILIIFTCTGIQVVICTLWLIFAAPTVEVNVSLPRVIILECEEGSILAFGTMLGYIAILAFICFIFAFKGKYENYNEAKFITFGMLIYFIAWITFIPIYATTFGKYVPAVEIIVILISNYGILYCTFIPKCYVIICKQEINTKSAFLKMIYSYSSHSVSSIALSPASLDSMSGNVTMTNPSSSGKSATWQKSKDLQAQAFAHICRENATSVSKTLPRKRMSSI

[10] = GHSR (growth hormone secretagogue receptor), read-out: % GPCR activation compared to TPA
[11] = GPR19 (G Protein-Coupled Receptor 19), read-out: % GPCR activation compared to TPA
[12] = GIPR (gastric inhibitory polypeptide receptor), read-out: % GPCR activation compared to TPA
[13] = GPBA (G protein-coupled bile acid receptor 1), read-out: % GPCR activation compared to TPA
[14] = GPR15 (G protein-coupled receptor 15), read-out: % GPCR activation compared to TPA
[15] = GPR3 (G protein-coupled receptor 3), read-out: % GPCR activation compared to TPA
[16] = GPRC6A (G protein-coupled receptor, family C, group 6, member A), read-out: % GPCR activation compared to TPA
[17] = read-out: % GPCR activation compared to TPA, GHSR (growth hormone secretagogue receptor)
[18] = read-out: % GPCR activation compared to TPA, GPR19 (G Protein-Coupled Receptor 19)
[19] = read-out: % GPCR activation compared to TPA, GIPR (gastric inhibitory polypeptide receptor)
[20] = read-out: % GPCR activation compared to TPA, GPBA (G protein-coupled bile acid receptor 1)
[21] = read-out: % GPCR activation compared to TPA, GPR15 (G protein-coupled receptor 15)
[22] = read-out: % GPCR activation compared to TPA, GPR3 (G protein-coupled receptor 3)
[23] = read-out: % GPCR activation compared to TPA, GPRC6A (G protein-coupled receptor, family C, group 6, member A)

| Compound | % GPCR activation compared to TPA [1] [%] | activation at 10 µM [2, 10] [%] | activation at 100 µM [3, 11] [%] | activation at 10 µM [4, 12] [%] | activation at 10 µM [5, 13] [%] | activation at 100 µM [6, 14] [%] | activation at 100 µM [7, 15] [%] | activation at 100 µM [8] [%] | activation at 10 µM [9, 16] [%] | activation at 10 µM [2, 17] [%] | activation at 100 µM [3, 18] [%] | activation at 10 µM [4, 19] [%] | activation at 10 µM [5, 20] [%] | activation at 100 µM [6, 21] [%] | activation at 100 µM [7, 22] [%] | activation at 10 µM [9, 23] [%] |
| --- | --- | --- | --- | --- | --- | --- | --- | --- | --- | --- | --- | --- | --- | --- | --- | --- |
| CCC(CC)COC(=O)[C@H](C)N[P@](=O)(OC[C@H]1O[C@@](C#N)(c2ccc3c(N)ncnn23)[C@H](O)[C@@H]1O)Oc1ccccc1 [remdesivir] | 0.3691 |  |  |  |  |  |  | -4.06 |  | 12.2 | -1.37 | -2.47 | -1.26 | -0.0536 | 9.85 | -2.47 |
| CC(C)OC(=O)[C@H](C)N[P@](=O)(OC[C@H]1O[C@@H](n2ccc(=O)[nH]c2=O)[C@](C)(F)[C@@H]1O)Oc1ccccc1 [sofosbuvir] | -1.511 |  |  |  |  |  |  | -1.13 |  | -0.354 | -1.2 | -0.359 | -0.805 | -12.9 | -0.512 | 0.803 |

Now from value to molecule, other results behind:

| % GPCR activation compared to TPA [1] [%] | activation at 10 µM [2, 10] [%] | activation at 100 µM [3, 11] [%] | activation at 10 µM [4, 12] [%] | activation at 10 µM [5, 13] [%] | activation at 100 µM [6, 14] [%] | activation at 100 µM [7, 15] [%] | activation at 100 µM [8] [%] | activation at 10 µM [9, 16] [%] | Compound | activation at 10 µM [2, 17] [%] | activation at 100 µM [3, 18] [%] | activation at 10 µM [4, 19] [%] | activation at 10 µM [5, 20] [%] | activation at 100 µM [6, 21] [%] | activation at 100 µM [7, 22] [%] | activation at 10 µM [9, 23] [%] |
| --- | --- | --- | --- | --- | --- | --- | --- | --- | --- | --- | --- | --- | --- | --- | --- | --- |
| -1.305 | -4.16 | -0.932 | -3.77 | -1.79 | -0.752 | 7.48 | 0.0409 | -1.11 | N#C[C@@]1(c2ccc3c(N)ncnn23)O[C@H](CO)[C@@H](O)[C@H]1O [GS441524] |  |  |  |  |  |  |  |
| -0.6733 | -3.33 | -0.654 | -1.79 | 0.241 | 1.23 | 3.58 | 1.89 | -1.55 | NC(=O)c1nc(F)cnc1O [favipiravir, 6-fluoro-3-hydroxy-2-pyrazinecarboxamide] |  |  |  |  |  |  |  |
| -1.679 | 0.166 | -0.76 | 1.42 | -1.97 | -0.0279 | -0.728 | -1.3 | -1.51 | CC(C)C(=O)OC[C@H]1O[C@@H](n2ccc(NO)nc2=O)[C@H](O)[C@@H]1O [molnupiravir] |  |  |  |  |  |  |  |
